According to patent US12630585B2, “Antibacterial tryglysin agents” (The Trustees of Princeton University, priority 2020, dated 2026):
Where no end group is shown, it is not given here.

Experiments:
S. pyogenes NZ131 = assay: Culture growth upon treatment with 100 nM antibiotic; type: cell-based, Streptococcus pyogenes; set-up: key: “−” indicates not inhibited; “+” indicates mildly inhibited; “++” indicates inhibited
Method: (§1) Other streptococcal species have similar dose-dependent growth inhibitory responses to tryglysins. WGK peptides inhibit growth of several streptococcal species, but not E. faecalis or L. lactis. We extended the evaluation of tryglysin inhibitory activity to other bacterial species. Culture growth rates of several Gram-positive species were evaluated upon treatment with 100 nM each antibiotic. Most susceptible to treatments, with complete growth inhibition at only 100 nM tryglysins, were strains of S. mitis, S. oralis, and S. pneumoniae, each being members of the mitis group. […] Unaffected were cultures of S. pyogenes, Lactococcus lactis, and Enterococcus faecalis (FIG. S4A to F).
(§2) It can also be seen that the disclosed peptides inhibit growth of several streptococcal species, but not others outside of streptococcal species, such as E. faecalis or L. lactis.
(§3) Specifically, bacterial strains were grown from prestored glycerol stocks at −80° C. and inoculated into THY broth. Strains were incubated overnight at 37° C. in an atmosphere of 5% CO2, and the next morning, they were washed and resuspended in fresh, prewarmed CDM as described above in Example 4.

S. mutans [1] = assay: Dose-dependent growth inhibition of cultures with tryglysin titrations over 9 hours; type: cell-based, Streptococcus mutans
Method: (§4) Growth inhibition of S. mutans and S. ferus cultures was tested with titrations of both tryglysin A and B over a period of 9 hours.
Referring to FIG. 3A, the dose-dependent growth inhibition of S. mutans by Triglysin A can be seen. Cultures exposed to no tryglysin A 301, 10 nM tryglysin A 302, 100 nM tryglysin A 303, and 1 μM tryglysin A 304 can be seen.
Referring to FIG. 3C, the dose-dependent growth inhibition of S. mutans by Triglysin B can be seen. Cultures exposed to no tryglysin B 321, 10 nM tryglysin B 322, 100 nM tryglysin B 323, and 1 μM tryglysin B 324 can be seen.

S. mutans [2] = assay: Morphological changes (cell chaining) by microscopy after tryglysin treatment; type: cell-based, Streptococcus mutans; settings: 100 nM
Method: FIG. 4 is a graph showing the quantification of chains greater than three cells in length for S. mutans exposed to 100 nM tryglysin A for 2 h, 5 h, or 7 h. A minimum of 100 cells were observed per condition and time point. −, no tryglysin A; +, 100 nM tryglysin A. **, P<0.01; ns, not significant by one-way ANOVA with Dunnet's multiple comparison posttest.
The impact of tryglysins on gross morphological changes to cell shape was examined at 2, 5, and 7 h after treatment with 100 nM tryglysin A or B by microscopy.
Prestored glycerol stocks of S. mutans strains at −80° C. were inoculated into THY broth and incubated overnight at 37° C. in an atmosphere of 5% CO2. CDM was prepared and prewarmed at 37° C. in an atmosphere of 5% CO2 overnight. The next morning, strains were transferred to sterile 15-ml conical tubes and centrifuged at room temperature at 4,000×g for 10 min. Strains were resuspended in 1 ml prewarmed CDM, transferred to microcentrifuge tubes, and centrifuged again at room temperature at 14,000×g for 5 min. Supernatant was discarded, and strains were resuspended in 1 ml fresh prewarmed CDM. Resuspended strains were then inoculated into 6 ml prewarmed CDM at 1:200 dilution. At each time point, strains were monitored by measuring OD600 with a GENESYS 30 Vis spectrophotometer (Thermo-Fisher)
If required, at 1 h postinoculation, 100 nM tryglysin A or B was added to the media. For microscopic analysis of samples, 2 ml of live cells was taken at 2 h, 5 h, and 7 h after the addition of tryglysins and examined using an Olympus CKX53 inverted microscope with a 40× LCACHN-iPC infinity objective (LCACHN40XIPC; numerical aperture, 0.55) connected to a SC50 camera (Olympus). Images were processed using Olympus Stream Image Analysis software (Olympus).

E. faecalis V583 = assay: Culture growth upon treatment with 100 nM antibiotic; type: cell-based, Enterococcus faecalis; set-up: key: “−” indicates not inhibited; “+” indicates mildly inhibited; “++” indicates inhibited
Method: as §1, §2, §3

S. bovis JB1 = assay: as above; type: cell-based, Streptococcus bovis; set-up: key to Inhibition By (S. bovis JB1): “−” indicates not inhibited; “+” indicates mildly inhibited; “++” indicates inhibited
Method: as §1, §2, §3

S. pneumoniae D39 = assay: as above; type: cell-based, Streptococcus pneumoniae; set-up: key: “−” indicates not inhibited; “+” indicates mildly inhibited; “++” indicates inhibited
Method: as §1, §2, §3

S. gordonii Challis Bt = assay: as above; type: cell-based, Streptococcus gordonii; set-up: key: “−” indicates not inhibited; “+” indicates mildly inhibited; “++” indicates inhibited
Method: as §1, §2, §3

S. agalactiae A909 = assay: as above; type: cell-based, Streptococcus agalactiae; set-up: key to Inhibition By (S. agalactiae A909): “−” indicates not inhibited; “+” indicates mildly inhibited; “++” indicates inhibited
Method: as §1, §2, §3

S. sanguinis ATCC 10556 = assay: as above; type: cell-based, Streptococcus sanguinis; set-up: key to Inhibition By (S. sanguinis ATCC 10556): “−” indicates not inhibited; “+” indicates mildly inhibited; “++” indicates inhibited
Method: as §1, §2, §3

S. mitis CCUG 31611 = assay: as above; type: cell-based, Streptococcus mitis; set-up: key: “−” indicates not inhibited; “+” indicates mildly inhibited; “++” indicates inhibited
Method: as §1, §2, §3

S. oralis 108 = assay: as above; type: cell-based, Streptococcus oralis; set-up: key: “−” indicates not inhibited; “+” indicates mildly inhibited; “++” indicates inhibited
Method: as §1, §2, §3

S. ferus = assay: Dose-dependent growth inhibition of cultures with tryglysin titrations over 9 hours; type: cell-based, Streptococcus ferus; settings: 9-h growth assay
Method: as §4
Referring to FIG. 3B, the dose-dependent growth inhibition of S. ferus by Triglysin A can be seen. Cultures exposed to no tryglysin A 311, 10 nM tryglysin A 312, and 100 nM tryglysin A 313 can be seen.
Referring to FIG. 3D, the dose-dependent growth inhibition of S. ferus by Triglysin B can be seen. Cultures exposed to no tryglysin B 331, 10 nM tryglysin B 332, and 100 nM tryglysin B 333 can be seen.

S. ferus DSM 20646 = assay: Culture growth upon treatment with 100 nM antibiotic; type: cell-based, Streptococcus ferus; set-up: key: “−” indicates not inhibited; “+” indicates mildly inhibited; “++” indicates inhibited
Method: as §1, §2, §3

L. lactis ATCC 11454 = assay: as above; type: cell-based, Lactococcus lactis; set-up: key: “−” indicates not inhibited; “+” indicates mildly inhibited; “++” indicates inhibited
Method: as §1, §2, §3

S. mutans UA159 = assay: as above; type: cell-based, Streptococcus mutans; set-up: key: “−” indicates not inhibited; “+” indicates mildly inhibited; “++” indicates inhibited
Method: as §1, §2, §3

[3] = to a lower degree than for S. agalactiae

| Substance | Inhibition By (S. pyogenes NZ131) (S. pyogenes NZ131) | growth inhibition of S. mutans (S. mutans [1]; 10 nM, 9-h growth assay) | chaining of S. mutans cells (chains greater than three cells in length) (S. mutans [2]; 5 h after addition) | chaining of S. mutans cells (chains greater than three cells in length) (S. mutans [2]; 7 h after addition) | Inhibition By (E. faecalis V583) (E. faecalis V583) | Inhibition By (S. bovis JB1) (S. bovis JB1) | Inhibition By (S. pneumoniae D39) (S. pneumoniae D39) | Inhibition By (S. gordonii Challis Bt) (S. gordonii Challis Bt) | Inhibition By (S. agalactiae A909) (S. agalactiae A909) | Inhibition By (S. sanguinis ATCC 10556) (S. sanguinis ATCC 10556) | Inhibition By (S. mitis CCUG 31611) (S. mitis CCUG 31611) | Inhibition By (S. oralis 108) (S. oralis 108) | growth inhibition of S. ferus (S. ferus; 10 nM) | growth inhibition of S. ferus (S. ferus; 100 nM) | Inhibition By (S. ferus DSM 20646) (S. ferus DSM 20646) | Inhibition By (L. lactis ATCC 11454) (L. lactis ATCC 11454) | Inhibition By (S. mutans UA159) (S. mutans UA159) | further results |
| --- | --- | --- | --- | --- | --- | --- | --- | --- | --- | --- | --- | --- | --- | --- | --- | --- | --- | --- |
| Tryglysin A (VNSWGKH; bridge (positions not given here); also: macrocyclic, tetrahydro[5,6]benzindole modification, places not given here) | − | Significant growth inhibition | significantly increased | significantly increased | − | + | ++ | + | ++ | ++ | ++ | ++ | Significant growth inhibition | complete inhibition | ++ | − | ++ | growth inhibition of S. mutans (S. mutans [1]; 100 nM, 9-h growth assay): further inhibition; growth inhibition of S. mutans (S. mutans [1]; 1 μM, 9-h growth assay): further inhibition; inhibitory activity against S. bovis compared with variant B (S. bovis JB1; [3]): greater inhibitory activity; inhibitory activity against S. agalactiae compared with variant B (S. agalactiae A909): greater inhibitory activity; inhibitory activity against S. sanguinis compared with variant B (S. sanguinis ATCC 10556; [3]): greater inhibitory activity |
| Tryglysin B (VNCWGKH; bridge (positions not given here); also: macrocyclic, tetrahydro[5,6]benzindole modification, places not given here; listed as Streptococcus ferus) | − | some inhibition | appeared to do the same | appeared to do the same | − | + | ++ | + | + | ++ | ++ | ++ | minimal inhibition | compete inhibition | ++ | − | ++ | concentration required for significant growth inhibition of S. mutans (S. mutans [1]; 9-h growth assay): at least 100 nM; concentration required for S. mutans to be completely inhibited (S. mutans [1]; over the 9-h growth assay): 1 µM |
